The results in this text go back to patent publication US11685732B2, “MYST family histone acetyltransferase inhibitors” (Epizyme, Inc., priority 2017, dated 2023).

One experiment addresses KAT-8 (Homo sapiens (Human), UniProt Q9H7Z6). As to the kind of experiment: KAT-8 biochemical inhibition assay (SAMDI mass spectrometry). The method, then: (§1) KAT-8. Enzyme assay buffer was 50 mM Tris pH 8.0, 0.002% Tween20, 0.005% bovine skin gelatin, and 1 mM dithiothreitol (DTT). For determination of IC50 values, compounds were serially diluted with 2% (v/v) DMSO in the final reaction, pre-incubating each dilution of each compound with 40 μL of assay buffer containing KAT-8 enzyme (12.5 nM final concentration). 10 μL of assay buffer containing 1 μM peptide substrate and 5 μM acetyl coenzyme A (final concentrations) was added. Reactions (50 μL total) were then carried out at 25° C. for 90 minutes. Reactions were terminated by the addition of 0.5% formic acid (final concentration), and a sample of each reaction was analyzed by SAMDI Tech, Inc. (Chicago, Ill.) using self-assembled monolayer desorption/ionization time-of-flight mass spectrometry (Mrksich, M. (2008) Mass spectrometry of self-assembled monolayers: a new tool for molecular surface science. ACS Nano 2, 7-18).

The next experiment has as its target KAT-7 (Homo sapiens (Human), UniProt O95251). As to the kind of experiment: KAT-7 biochemical inhibition assay (SAMDI mass spectrometry). As to the method:
as §1, with “KAT-7. Enzyme” for “KAT-8. Enzyme”, “containing KAT-7” for “containing KAT-8”, “enzyme (6” for “enzyme (12.5”, “and 2” for “and 5”, “for 120” for “for 90”

Another experiment deals with KAT-6A (Homo sapiens (Human), UniProt Q92794). Nature of the experiment: KAT-6A biochemical inhibition assay (SAMDI mass spectrometry). An outline of the steps:
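Enzyme (12.5 nM final) pre-incubated with serially diluted compounds (2% DMSO final) in 50 mM Tris pH 8.0 with Tween20, gelatin and 1 mM DTT. Reaction started with 1 μM peptide substrate and 1 μM acetyl-CoA, run 90 min at 25 °C, quenched with 0.5% formic acid, read by SAMDI-TOF mass spectrometry; IC50 derived.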

The target in a further experiment is KAT-5 (Homo sapiens (Human), UniProt Q92993). As to the kind of experiment: KAT-5 biochemical inhibition assay (SAMDI mass spectrometry). The method, boiled down: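 KAT-5 at 9 nM final was preincubated with serially diluted compound (2% DMSO) in 50 mM Tris pH 8.0 with 1 mM DTT. Reaction ran with 1 μM peptide substrate and 0.5 μM acetyl-CoA for 90 min at 25° C, was quenched with 0.5% formic acid, and was read by SAMDI-TOF mass spectrometry.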
Sequence of KAT-5 (Q92993 other isoform, or with tags, fused parts or gaps): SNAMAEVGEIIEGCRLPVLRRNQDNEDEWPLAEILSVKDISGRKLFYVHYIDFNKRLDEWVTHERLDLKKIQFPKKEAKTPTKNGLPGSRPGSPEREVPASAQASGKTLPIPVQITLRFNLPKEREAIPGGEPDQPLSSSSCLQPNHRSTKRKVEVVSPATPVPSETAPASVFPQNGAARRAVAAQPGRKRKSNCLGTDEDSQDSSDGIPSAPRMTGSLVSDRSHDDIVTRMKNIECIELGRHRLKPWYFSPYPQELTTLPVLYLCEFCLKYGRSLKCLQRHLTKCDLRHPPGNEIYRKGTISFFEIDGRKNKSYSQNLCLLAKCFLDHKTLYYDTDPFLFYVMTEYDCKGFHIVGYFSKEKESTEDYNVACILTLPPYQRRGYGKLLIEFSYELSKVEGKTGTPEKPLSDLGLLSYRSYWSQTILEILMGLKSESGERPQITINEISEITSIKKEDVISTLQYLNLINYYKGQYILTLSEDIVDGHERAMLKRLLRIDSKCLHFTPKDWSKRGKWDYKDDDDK

Sequence of KAT-6A (Q92794 other isoform, or with tags, fused parts or gaps): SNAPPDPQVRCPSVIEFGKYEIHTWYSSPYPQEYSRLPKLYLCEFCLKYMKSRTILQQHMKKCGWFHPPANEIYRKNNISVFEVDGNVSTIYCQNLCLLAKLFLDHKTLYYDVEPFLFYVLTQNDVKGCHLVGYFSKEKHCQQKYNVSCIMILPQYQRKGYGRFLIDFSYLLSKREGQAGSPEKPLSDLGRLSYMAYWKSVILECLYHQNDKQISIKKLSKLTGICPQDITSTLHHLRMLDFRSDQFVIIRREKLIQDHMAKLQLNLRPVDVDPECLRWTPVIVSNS
Sequence of KAT-8 (Q9H7Z6 other isoform, or with tags, fused parts or gaps): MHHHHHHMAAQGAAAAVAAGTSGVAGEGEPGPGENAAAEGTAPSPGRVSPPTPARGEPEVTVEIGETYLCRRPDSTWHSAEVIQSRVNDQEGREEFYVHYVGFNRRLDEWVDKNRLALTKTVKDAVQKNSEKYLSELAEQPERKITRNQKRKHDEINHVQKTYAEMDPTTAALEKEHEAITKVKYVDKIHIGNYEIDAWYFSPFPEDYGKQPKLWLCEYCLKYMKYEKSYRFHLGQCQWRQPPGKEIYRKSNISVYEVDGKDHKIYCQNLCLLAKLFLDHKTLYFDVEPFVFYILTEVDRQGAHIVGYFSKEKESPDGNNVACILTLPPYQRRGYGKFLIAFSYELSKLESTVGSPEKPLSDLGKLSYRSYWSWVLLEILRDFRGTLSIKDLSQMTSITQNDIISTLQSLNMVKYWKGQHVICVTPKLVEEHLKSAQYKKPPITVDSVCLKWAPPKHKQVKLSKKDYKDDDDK
Sequence of KAT-7 (O95251 other isoform, or with tags, fused parts or gaps): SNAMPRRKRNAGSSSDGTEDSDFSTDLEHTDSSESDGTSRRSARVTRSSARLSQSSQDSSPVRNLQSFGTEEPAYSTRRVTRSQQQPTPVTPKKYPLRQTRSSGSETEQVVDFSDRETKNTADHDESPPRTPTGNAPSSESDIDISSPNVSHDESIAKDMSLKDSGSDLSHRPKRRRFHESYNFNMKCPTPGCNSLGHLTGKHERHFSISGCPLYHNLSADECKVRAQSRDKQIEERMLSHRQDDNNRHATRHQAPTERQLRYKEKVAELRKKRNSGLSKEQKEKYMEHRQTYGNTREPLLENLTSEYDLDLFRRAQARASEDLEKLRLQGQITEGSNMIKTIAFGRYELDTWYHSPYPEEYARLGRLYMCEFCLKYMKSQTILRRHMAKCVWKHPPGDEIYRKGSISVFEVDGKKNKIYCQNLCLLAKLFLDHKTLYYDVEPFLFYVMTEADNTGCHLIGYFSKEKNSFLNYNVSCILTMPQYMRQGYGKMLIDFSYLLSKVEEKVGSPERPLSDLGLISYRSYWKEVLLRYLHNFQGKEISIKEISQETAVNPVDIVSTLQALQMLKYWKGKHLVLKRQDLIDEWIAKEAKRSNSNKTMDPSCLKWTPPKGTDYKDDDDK

For orientation: IC50 means the concentration needed to halve the response being measured. A higher IC50 goes with lower potency. Regarding `Cn1cnc(-c2cc(Cl)c(F)c(C(=O)NNS(=O)(=O)C3CCN(C(=O)OC(C)(C)C)CC3)c2)c1` [Compound I-3], the IC50 is above 100 µM against KAT-8, below 10 µM against KAT-7, below 10 µM against KAT-6A and below 10 µM against KAT-5.

For the compound `Cn1ccc(-c2cc(Cl)c(F)c(C(=O)NNS(=O)(=O)CC3CCCCC3)c2)n1` [Compound I-4], the IC50 on KAT-8 was 50 to 100 µM; against KAT-7, below 10 µM; against KAT-6A, below 10 µM; against KAT-5, below 10 µM.

Consider `O=C(NNS(=O)(=O)CC1CCCCC1)c1cc(-c2ccccn2)cc(Cl)c1F` [Compound I-5], for which the IC50 was above 100 µM against KAT-8, below 10 µM against KAT-7, below 10 µM against KAT-6A and below 10 µM on KAT-5.

In the case of `Cn1ccc(-c2cc(Cl)c(F)c(C(=O)NNS(=O)(=O)CC3CCOCC3)c2)n1` [Compound I-6], the IC50 is above 100 µM at KAT-8, 10 to 50 µM against KAT-7, below 10 µM at KAT-6A and 10 to 50 µM at KAT-5.

In the case of `Cn1cnc(-c2cc(Cl)c(F)c(C(=O)NNS(=O)(=O)CC3CCCNC3)c2)c1` (stereo not shown) [Compound I-7], the IC50 at KAT-8 was above 100 µM; at KAT-7 it was below 10 µM; against KAT-6A it was 50 to 100 µM; on KAT-5, 10 to 50 µM.

With `Cn1cc(-c2cc(Cl)c(F)c(C(=O)NNS(=O)(=O)C3CCOCC3)c2)nc1Cl` [Compound I-8], the IC50 against KAT-8 was above 100 µM; against KAT-7 it was 10 to 50 µM; against KAT-6A, 10 to 50 µM; against KAT-5, above 100 µM.

On to `Cn1cnc(-c2cc(Cl)c(F)c(C(=O)NNS(=O)(=O)C3CCOCC3)c2)c1` [Compound I-9], for which the IC50 at KAT-8 was above 100 µM; against KAT-7, below 10 µM; on KAT-6A it was 10 to 50 µM; against KAT-5, 10 to 50 µM.

As to `CC(=O)N1CCCC(CS(=O)(=O)NNC(=O)c2cc(-c3cn(C)cn3)cc(Cl)c2F)C1` (stereo not shown) [Compound I-10], the IC50 was above 100 µM against KAT-8, below 10 µM at KAT-7, below 10 µM at KAT-6A and below 10 µM against KAT-5.

For the compound `Cn1c(Cl)nc(-c2cc(Cl)c(F)c(C(=O)NNS(=O)(=O)C3CCOCC3)c2)c1Cl` [Compound I-11], the IC50 against KAT-8 was above 100 µM; at KAT-7 it was 50 to 100 µM; against KAT-6A, 10 to 50 µM; on KAT-5 it was 50 to 100 µM.

Take `Cn1cnc(-c2cc(Cl)c(F)c(C(=O)NNS(=O)(=O)C3CCC3)c2)c1` [Compound I-12]: the IC50 against KAT-8 was above 100 µM; on KAT-7, below 10 µM; on KAT-6A, 50 to 100 µM; at KAT-5 it was 50 to 100 µM.

Consider `Cn1cnc(-c2cc(Cl)c(F)c(C(=O)NNS(=O)(=O)CC3CCCN(C(=O)C4CCC4)C3)c2)c1` (stereo not shown) [Compound I-13], for which the IC50 against KAT-8 was above 100 µM; on KAT-7, below 10 µM; at KAT-6A, below 10 µM; against KAT-5 it was below 10 µM.

With `CC(C)S(=O)(=O)NNC(=O)c1cc(-c2cn(C)cn2)cc(Cl)c1F` [Compound I-14], the IC50 was above 100 µM at KAT-8, 10 to 50 µM against KAT-7, above 100 µM against KAT-6A and 50 to 100 µM against KAT-5.

Take `Cn1cnc(-c2cc(Cl)c(F)c(C(=O)NNS(=O)(=O)C3CCCC3)c2)c1` [Compound I-15]: the IC50 against KAT-8 is above 100 µM; on KAT-7 it was below 10 µM; against KAT-6A it was 50 to 100 µM; against KAT-5, 10 to 50 µM.

Regarding `Cn1cc(-c2cc(Cl)c(F)c(C(=O)NNS(=O)(=O)CC3CCOCC3)c2)cn1` [Compound I-16], the IC50 against KAT-8 is above 100 µM; against KAT-7, below 10 µM; against KAT-6A, above 100 µM; against KAT-5, 10 to 50 µM.

For the compound `Cc1ccnc(-c2cc(Cl)c(F)c(C(=O)NNS(=O)(=O)CC3CCOCC3)c2)c1` [Compound I-17], the IC50 on KAT-8 was above 100 µM; at KAT-7, below 10 µM; against KAT-6A it was below 10 µM; at KAT-5 it was below 10 µM.

In the case of `Cn1cnc(-c2cc(Cl)c(F)c(C(=O)NNS(=O)(=O)C3CC3)c2)c1` [Compound I-19], the IC50 is above 100 µM on KAT-8, 10 to 50 µM at KAT-7, above 100 µM against KAT-6A and above 100 µM against KAT-5.

Take `Cn1cnc(-c2cc(Cl)c(F)c(C(=O)NNS(=O)(=O)CC3CCCC3)c2)c1` [Compound I-20]: the IC50 against KAT-8 is 50 to 100 µM; on KAT-7, below 10 µM; against KAT-6A, below 10 µM; on KAT-5, below 10 µM.

As for `Cn1cnc(-c2cc(Cl)c(F)c(C(=O)NNS(C)(=O)=O)c2)c1` [Compound I-22], the 50% inhibitory concentration (IC50) against KAT-8 was above 100 µM; against KAT-7, below 10 µM; on KAT-6A, 10 to 50 µM; on KAT-5 it was above 100 µM.

Turning to `CCS(=O)(=O)NNC(=O)c1cc(-c2cn(C)cn2)cc(Cl)c1F` [Compound I-25], the IC50 against KAT-8 was above 100 µM; against KAT-7, below 10 µM; on KAT-6A it was 50 to 100 µM; against KAT-5 it was 10 to 50 µM.

Turning to `Cc1nc(-c2cc(Cl)c(F)c(C(=O)NNS(=O)(=O)C3CCCCC3)c2)cn1C` [Compound I-26], the IC50 against KAT-8 is above 100 µM; against KAT-7, below 10 µM; against KAT-6A, 10 to 50 µM; at KAT-5, below 10 µM.

`Cn1cnc(-c2cc(Cl)c(F)c(C(=O)NNS(=O)(=O)C3CCOC3)c2)c1` (stereo not shown) [Compound I-27]: the half-inhibitory concentration (IC50) is above 100 µM on KAT-8, below 10 µM against KAT-7, 50 to 100 µM on KAT-6A and 10 to 50 µM against KAT-5.

With `CCn1cnc(-c2cc(Cl)c(F)c(C(=O)NNS(=O)(=O)CC3CCCCC3)c2)c1C` [Compound I-28], the IC50 at KAT-8 is above 100 µM; on KAT-7, below 10 µM; on KAT-6A, above 100 µM; on KAT-5, 10 to 50 µM.

For the compound `Cc1ncc(-c2cc(Cl)c(F)c(C(=O)NNS(=O)(=O)CC3CCCCC3)c2)n1C` [Compound I-29], the IC50 against KAT-8 is above 100 µM; at KAT-7, 50 to 100 µM; on KAT-6A, above 100 µM; at KAT-5, 10 to 50 µM.

As for `Cc1ncc(-c2cc(Cl)c(F)c(C(=O)NNS(=O)(=O)CC3CCOCC3)c2)n1C` [Compound I-30], the IC50 at KAT-8, at KAT-7, against KAT-6A and on KAT-5 was above 100 µM each time.

On to `Cn1cnc(-c2cc(Cl)c(F)c(C(=O)NNS(=O)(=O)CC3CCC3)c2)c1` [Compound I-31], for which the IC50 against KAT-8 is 10 to 50 µM; on KAT-7, below 10 µM; at KAT-6A it was below 10 µM; against KAT-5 it was below 10 µM.

On to `Cn1cnc(-c2cc(Cl)c(F)c(C(=O)NNS(=O)(=O)CC3CCCN(C(=O)C4CCOCC4)C3)c2)c1` (stereo not shown) [Compound I-32], for which the half-inhibitory concentration (IC50) on KAT-8 is above 100 µM; against KAT-7, below 10 µM; against KAT-6A it was below 10 µM; against KAT-5, below 10 µM.

`Cc1nc(-c2cc(Cl)c(F)c(C(=O)NNS(=O)(=O)CC3CCOCC3)c2)cn1C` [Compound I-33]: the IC50 at KAT-8 was above 100 µM; at KAT-7, below 10 µM; at KAT-6A it was 10 to 50 µM; against KAT-5, 10 to 50 µM.

Turning to `O=C(NNS(=O)(=O)CC1CCCCC1)c1cc(-n2cccn2)cc(Cl)c1F` [Compound I-34], the IC50 at KAT-8 is above 100 µM; against KAT-7, 10 to 50 µM; against KAT-6A it was below 10 µM; against KAT-5, below 10 µM.
